Data on two compounds can be found in ChEMBL document CHEMBL4622979, “Non-rigid Diarylmethyl Analogs of Baloxavir as Cap-Dependent Endonuclease Inhibitors of Influenza Viruses” (J Med Chem, 2020).

Structures are written as SMILES.

Usually Cmax stands for the maximum level reached in the sampled fluid or tissue. One may read the Tmax as the time from dosing to the highest level. A word on the CC50: it is the concentration that lowers cell viability or growth by half.

Series [1] in a line: Elimination rate constant in CD1 mouse heart assessed as baloxavir acid level at 15 mg/kg, po administered as single dose measured up to 24 hrs by LC-MS/MS analysis. The series is classed as ADME, organism-based. Conditions: in vivo.
Series [2] is described as follows: Ratio of AUClast in CD1 mouse lung to plasma assessed as baloxavir acid level at 15 mg/kg, po administered as single dose measured up to 24 hrs by LC-MS/MS analysis. The class given is ADME, organism-based. Conditions: other tissue.
Series [3] can be described thus: AUClast in CD1 mouse lung assessed as baloxavir acid level at 15 mg/kg, po administered as single dose by LC-MS/MS analysis. The series is classed as ADME, organism-based. Conditions: in vivo.
A short description of series [4]: Half life in CD1 mouse plasma assessed as baloxavir acid level at 15 mg/kg, po administered as single dose measured up to 24 hrs by LC-MS/MS analysis. The series is classed as ADME, organism-based. Conditions: in vivo.
Series [5] in a line: AUClast in CD1 mouse heart assessed as baloxavir acid level at 15 mg/kg, po administered as single dose measured up to 24 hrs by LC-MS/MS analysis. To be noted: in vivo. The series is classed as ADME, organism-based.
The nature of series [6]: AUClast in CD1 mouse spleen assessed as baloxavir acid level at 15 mg/kg, po administered as single dose measured up to 24 hrs by LC-MS/MS analysis. The class given is ADME, organism-based. Conditions: in vivo.
Series [7] is described as follows: Cmax in CD1 mouse brain assessed as baloxavir acid level at 15 mg/kg, po administered as single dose measured up to 24 hrs by LC-MS/MS analysis. The class given is ADME, organism-based. Conditions: in vivo. The arrangement: dose 15 mg/kg, route oral.
A short description of series [8]: Tmax in CD1 mouse spleen assessed as baloxavir acid level at 15 mg/kg, po administered as single dose measured up to 24 hrs by LC-MS/MS analysis. The class given is ADME, organism-based. To be noted: in vivo.
Series [9] can be described thus: Ratio of AUClast in CD1 mouse kidney to plasma assessed as baloxavir acid level at 15 mg/kg, po administered as single dose measured up to 24 hrs by LC-MS/MS analysis. Conditions: other tissue. The class given is ADME, organism-based.
The nature of series [10]: Cmax in CD1 mouse plasma assessed as baloxavir acid level at 15 mg/kg, po administered as single dose measured up to 24 hrs by LC-MS/MS analysis. The series is classed as ADME, organism-based. Also noted: dose 15 mg/kg, route oral. Conditions: in vivo.
The nature of series [11]: Acute toxicity in CD1 mouse assessed as effect on lung at 2000 mg/kg, po measured after 2 weeks by macroscopic analysis. The series is classed as organism-based. To be noted: in vivo, 336 h.
Series [12] is described as follows: Cmax in CD1 mouse kidney assessed as (12aR)-12-(Diphenylmethyl)-7-hydroxy-3,4,12,12a-tetrahydro-1H-[1,4]oxazino[3,4-c]pyrido[2,1-f ][1,2,4]triazine-6,8-dione level at 15 mg/kg, po administered as single dose measured up to 24 hrs by LC-MS/MS analysis. The series is classed as ADME, organism-based. The arrangement: dose 15 mg/kg, route oral. To be noted: in vivo.

The nature of series [13]: AUClast in CD1 mouse muscle assessed as (12aR)-12-(Diphenylmethyl)-7-hydroxy-3,4,12,12a-tetrahydro-1H-[1,4]oxazino[3,4-c]pyrido[2,1-f ][1,2,4]triazine-6,8-dione level at 15 mg/kg, po administered as single dose measured up to 24 hrs by LC-MS/MS analysis. To be noted: in vivo. The series is classed as ADME, organism-based, Muscle tissue.
Series [14] can be described thus: Ratio of AUClast in CD1 mouse liver to plasma assessed as (12aR)-12-(Diphenylmethyl)-7-hydroxy-3,4,12,12a-tetrahydro-1H-[1,4]oxazino[3,4-c]pyrido[2,1-f ][1,2,4]triazine-6,8-dione level at 15 mg/kg, po administered as single dose measured up to 24 hrs by LC-MS/MS analysis. The series is classed as ADME, organism-based. To be noted: other tissue.
The nature of series [15]: Tmax in CD1 mouse trachea assessed as (12aR)-12-(Diphenylmethyl)-7-hydroxy-3,4,12,12a-tetrahydro-1H-[1,4]oxazino[3,4-c]pyrido[2,1-f ][1,2,4]triazine-6,8-dione level at 15 mg/kg, po administered as single dose measured up to 24 hrs by LC-MS/MS analysis. To be noted: in vivo. The class given is ADME, organism-based.
The nature of series [16]: AUClast in CD1 mouse spleen assessed as (12aR)-12-(Diphenylmethyl)-7-hydroxy-3,4,12,12a-tetrahydro-1H-[1,4]oxazino[3,4-c]pyrido[2,1-f ][1,2,4]triazine-6,8-dione level at 15 mg/kg, po administered as single dose measured up to 24 hrs by LC-MS/MS analysis. The series is classed as ADME, organism-based. Conditions: in vivo.
Series [17] is described as follows: Ratio of AUClast in CD1 mouse heart to plasma assessed as (12aR)-12-(Diphenylmethyl)-7-hydroxy-3,4,12,12a-tetrahydro-1H-[1,4]oxazino[3,4-c]pyrido[2,1-f ][1,2,4]triazine-6,8-dione level at 15 mg/kg, po administered as single dose measured up to 24 hrs by LC-MS/MS analysis. The class given is ADME, organism-based. Conditions: other tissue.
Series [18] can be described thus: MRTlast in CD1 mouse blood assessed as (12aR)-12-(Diphenylmethyl)-7-hydroxy-3,4,12,12a-tetrahydro-1H-[1,4]oxazino[3,4-c]pyrido[2,1-f ][1,2,4]triazine-6,8-dione level at 15 mg/kg, po administered as single dose measured up to 24 hrs by LC-MS/MS analysis. To be noted: in vivo. The class given is ADME, organism-based.
Series [19] can be described thus: AUClast in CD1 mouse plasma assessed as (12aR)-12-(Diphenylmethyl)-7-hydroxy-3,4,12,12a-tetrahydro-1H-[1,4]oxazino[3,4-c]pyrido[2,1-f ][1,2,4]triazine-6,8-dione level at 15 mg/kg, po administered as single dose measured up to 24 hrs by LC-MS/MS analysis. The class given is ADME, organism-based. Also noted: dose 15 mg/kg, time < 24 hr, route oral. To be noted: in vivo.

Series [20] is described as follows: Cytotoxicity against human PBMC cells assessed as reduction in cell viability by ATP bioluminescence assay. The series is classed as cell-based.
The nature of series [21]: Elimination rate constant in CD1 mouse blood assessed as (12aR)-12-(Diphenylmethyl)-7-hydroxy-3,4,12,12a-tetrahydro-1H-[1,4]oxazino[3,4-c]pyrido[2,1-f ][1,2,4]triazine-6,8-dione level at 15 mg/kg, po administered as single dose measured up to 24 hrs by LC-MS/MS analysis. The series is classed as ADME, organism-based. Conditions: in vivo.
Series [22] in a line: Cmax in CD1 mouse trachea assessed as (12aR)-12-(Diphenylmethyl)-7-hydroxy-3,4,12,12a-tetrahydro-1H-[1,4]oxazino[3,4-c]pyrido[2,1-f ][1,2,4]triazine-6,8-dione level at 15 mg/kg, po administered as single dose measured up to 24 hrs by LC-MS/MS analysis. Also noted: dose 15 mg/kg, route oral. Conditions: in vivo. The series is classed as ADME, organism-based.
A short description of series [23]: AUCinfinity in CD1 mouse brain assessed as (12aR)-12-(Diphenylmethyl)-7-hydroxy-3,4,12,12a-tetrahydro-1H-[1,4]oxazino[3,4-c]pyrido[2,1-f ][1,2,4]triazine-6,8-dione level at 15 mg/kg, po administered as single dose measured up to 24 hrs by LC-MS/MS analysis. The class given is ADME, organism-based. Also noted: dose 15 mg/kg, time infinity, route oral. To be noted: in vivo.

The nature of series [24]: Half life in CD1 mouse small intestine assessed as (12aR)-12-(Diphenylmethyl)-7-hydroxy-3,4,12,12a-tetrahydro-1H-[1,4]oxazino[3,4-c]pyrido[2,1-f ][1,2,4]triazine-6,8-dione level at 15 mg/kg, po administered as single dose measured up to 24 hrs by LC-MS/MS analysis. The series is classed as ADME, organism-based. To be noted: in vivo.
Series [25] can be described thus: MRTlast in CD1 mouse kidney assessed as (12aR)-12-(Diphenylmethyl)-7-hydroxy-3,4,12,12a-tetrahydro-1H-[1,4]oxazino[3,4-c]pyrido[2,1-f ][1,2,4]triazine-6,8-dione level at 15 mg/kg, po administered as single dose measured up to 24 hrs by LC-MS/MS analysis. The series is classed as ADME, organism-based. To be noted: in vivo.

`COC(=O)OCOc1c2n(ccc1=O)N([C@@H]1c3ccccc3SCc3c1ccc(F)c3F)[C@@H]1COCCN1C2=O` [BALOXAVIR MARBOXIL]: in series [1], the Kel was found to be 0.2 h⁻¹. Further, the “Ratio AUC” value in series [2] was determined as 21.1; in series [9], 46.8. Also, the AUClast in [3] was determined as 11909 ng·h/g; in series [5] it was 8959 ng·h/g; in series [6], 3611 ng·h/g. Also, the t1/2 in series [4] came out at 3.8 h. In addition, the results for the Cmax in [7] and in series [10] were 21.9 ng/g and 88.5 ng/mL, respectively. In series [8], the Tmax is 2 h.
Consider `COC(=O)OCOc1c2n(ccc1=O)N(C(c1ccccc1)c1ccccc1)[C@@H]1COCCN1C2=O`, for which the Activity result in series [11] is reported as “Non-Toxic”. The figures for the maximum concentration (Cmax) in series [12] and in [22] were 5260 ng/g and 3431 ng/g, respectively. Also, the AUClast in series [13] was found to be 7425 ng·h/g; in series [16], 4545 ng·h/g; in series [19] it was 3287 ng·h/mL. In addition, the figures for the “Ratio AUC” value in [14] and in series [17] were 10.6 and 3.38, respectively. Also, the Tmax in series [15] is 0.5 h. For the same compound, the MRTlast in [18] was 1.78 h; in series [25] it was 2.5 h. The cytotoxic concentration (CC50) in series [20] amounted to 100 µM. In addition, the Kel in series [21] worked out at 0.4 h⁻¹. For the same compound, in [23], the AUC came out at 1238 ng·h/g. The t1/2 in series [24] turned out to be 1.28 h.
